Measurements: patent publication US12365664B2, “Small molecule inhibitors of SRC tyrosine kinase” (Dana-Farber Cancer Institute, Inc., priority 2019, dated 2025)

How the values were obtained:
YES1 = YES1 (Homo sapiens (Human), UniProt P07947); test: SelectScreen Kinase Profiling Services commercial assay (ThermoFisher), YES1; assay type: biochemical
SRC = SRC (Homo sapiens (Human), UniProt P12931); test: SelectScreen Kinase Profiling Services commercial assay (ThermoFisher), SRC; assay type: biochemical
SRC, sequence (P12931 whole entry): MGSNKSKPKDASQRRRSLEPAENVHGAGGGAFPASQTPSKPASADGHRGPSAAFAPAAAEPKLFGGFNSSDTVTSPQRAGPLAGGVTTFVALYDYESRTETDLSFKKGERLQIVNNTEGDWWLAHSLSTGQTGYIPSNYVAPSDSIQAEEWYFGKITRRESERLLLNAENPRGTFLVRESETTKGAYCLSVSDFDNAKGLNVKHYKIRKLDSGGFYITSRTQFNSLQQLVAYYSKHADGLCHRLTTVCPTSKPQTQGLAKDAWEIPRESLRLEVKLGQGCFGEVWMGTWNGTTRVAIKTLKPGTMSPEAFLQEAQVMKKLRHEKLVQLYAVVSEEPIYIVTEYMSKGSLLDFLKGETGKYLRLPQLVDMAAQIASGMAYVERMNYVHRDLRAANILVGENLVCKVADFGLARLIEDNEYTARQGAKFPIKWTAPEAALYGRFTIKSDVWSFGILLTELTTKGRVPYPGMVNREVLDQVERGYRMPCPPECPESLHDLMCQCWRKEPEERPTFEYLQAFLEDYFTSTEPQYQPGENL

YES1, sequence (P07947 whole entry): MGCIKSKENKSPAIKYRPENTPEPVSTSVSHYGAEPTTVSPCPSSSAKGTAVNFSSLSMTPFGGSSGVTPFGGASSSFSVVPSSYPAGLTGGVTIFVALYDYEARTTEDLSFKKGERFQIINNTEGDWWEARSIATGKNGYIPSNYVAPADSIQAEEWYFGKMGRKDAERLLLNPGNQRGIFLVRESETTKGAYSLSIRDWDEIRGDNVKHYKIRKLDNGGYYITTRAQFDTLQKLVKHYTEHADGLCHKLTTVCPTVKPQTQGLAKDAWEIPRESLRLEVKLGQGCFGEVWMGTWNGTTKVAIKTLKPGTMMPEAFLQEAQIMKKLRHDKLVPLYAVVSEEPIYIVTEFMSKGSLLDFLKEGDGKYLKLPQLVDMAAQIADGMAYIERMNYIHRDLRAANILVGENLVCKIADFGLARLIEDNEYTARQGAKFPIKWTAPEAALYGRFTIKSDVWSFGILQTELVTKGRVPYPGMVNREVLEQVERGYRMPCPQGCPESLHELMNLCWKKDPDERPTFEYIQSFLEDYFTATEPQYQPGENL

Compound	IC50 (YES1) [nM]	IC50 (SRC) [nM]
C=CC(=O)Nc1ccccc1Nc1nc(Nc2ccc(N3CCN(C)CC3)cc2)ncc1CC [Compound 2, N-{2-[(5-ethyl-2-{[4-(4-methylpiperazin-1-yl)phenyl]amino}pyrimidin-4-yl)amino]phenyl}prop-2-enamide]	1 to 10	1 to 10
C=CC(=O)Nc1ccccc1Nc1nc(Nc2ccc(N3CCN(C)CC3)cc2)ncc1C [Compound 4, N-{2-[(5-methyl-2-{[4-(4-methylpiperazin-1-yl)phenyl]amino}pyrimidin-4-yl)amino]phenyl}prop-2-enamide]	1 to 10	1 to 10
C=CC(=O)Nc1ccccc1Nc1nc(Nc2ccc(N3CCN(C)CC3)cc2)ncc1-c1cccs1 [Compound 6, N-(2-((2-((4-(4-methylpiperazin-1-yl)phenyl)amino)-5-(thiophen-2-yl)pyrimidin-4-yl)amino)phenyl)acrylamide]	1 to 10	1 to 10
C=CC(=O)Nc1ccccc1Nc1nc(Nc2ccc(N3CCN(C)CC3)cc2)ncc1-c1ccc(OC)nc1 [Compound 9, N-(2-((5-(6-methoxypyridin-3-yl)-2-((4-(4-methylpiperazin-1-yl)phenyl)amino)pyrimidin-4-yl)amino)phenyl)acrylamide]	1 to 10	1 to 10
C=CC(=O)Nc1ccccc1Nc1nc(Nc2ccc(N3CCN(C)CC3)cc2)nc2ccsc12 [Compound 11, N-{2-[(2-{[4-(4-methylpiperazin-1-yl)phenyl]amino}thieno[3,2-d]pyrimidin-4-yl)amino]phenyl}prop-2-enamide]	1 to 10	1 to 10
C=CC(=O)Nc1ccccc1Nc1nc(Nc2ccc(N3CCN(C)CC3)cc2)nc(N)c1Cl [Compound 13, N-{2-[(6-amino-5-chloro-2-{[4-(4-methylpiperazin-1-yl)phenyl]amino}pyrimidin-4-yl)amino]phenyl}prop-2-enamide]	1 to 10	10 to 100
C=CC(=O)Nc1ccccc1Nc1nc(Nc2ccc(N3CCN(C)CC3)cc2)nc2sccc12 [Compound 14, N-{2-[(2-{[4-(4-methylpiperazin-1-yl)phenyl]amino}thieno[2,3-d]pyrimidin-4-yl)amino]phenyl}prop-2-enamide]	10 to 100	100 to 1000
C=CC(=O)Nc1ccccc1Nc1nc(Nc2ccc(N3CCN(C)CC3)cc2)ncc1OCc1ccc(C)cc1 [Compound 15, N-(2-((5-((4-methylbenzyl)oxy)-2-((4-(4-methylpiperazin-1-yl)phenyl)amino)pyrimidin-4-yl)amino)phenyl)acrylamide]	1 to 10	1 to 10
C=CC(=O)Nc1ccccc1Nc1nc(Nc2ccc(N3CCN(C)CC3)cc2)ncc1OCc1c(C)cccc1Cl [Compound 17, N-(2-((5-((2-chloro-6-methylbenzyl)oxy)-2-((4-(4-methylpiperazin-1-yl)phenyl)amino)pyrimidin-4-yl)amino)phenyl)acrylamide]	–	1 to 10
C=CC(=O)Nc1ccccc1Nc1nc(Nc2ccc(N3CCN(C)CC3)cc2)ncc1C(=O)NCc1ccc(Oc2ccccc2)cc1 [Compound 19, 2-{[4-(4-methylpiperazin-1-yl)phenyl]amino}-N-[(4-phenoxyphenyl)methyl]-4-{[2-(prop-2-enamido)phenyl]amino}pyrimidine-5-carboxamide]	> 10000	> 10000
C=CC(=O)Nc1ccccc1Nc1nc(Nc2ccc(N3CCN(C)CC3)cc2)ncc1C(=O)Nc1c(C)cccc1C [Compound 28, N-(2,6-dimethylphenyl)-2-{[4-(4-methylpiperazin-1-yl)phenyl]amino}-4-{[2-(prop-2-enamido)phenyl]amino}pyrimidine-5-carboxamide]	< 1	1 to 10
C=CC(=O)Nc1ccccc1Nc1nc(Nc2ccc(N3CCN(C)CC3)cc2)ncc1C(=O)Nc1c(C)cc(C(=O)O)cc1Cl [Compound 30, 3-chloro-5-methyl-4-(2-{[4-(4-methylpiperazin-1-yl)phenyl]amino}-4-{[2-(prop-2-enamido)phenyl]amino}pyrimidine-5-amido)benzoic acid]	–	> 10000
C=CC(=O)Nc1cccc(C)c1Nc1nc(Nc2ccc(N3CCN(C)CC3)cc2)ncc1Cl [Compound 31, N-{2-[(5-chloro-2-{[4-(4-methylpiperazin-1-yl)phenyl]amino}pyrimidin-4-yl)amino]-3-methylphenyl}prop-2-enamide]	100 to 1000	1000 to 10000
C=CC(=O)Nc1ccc(C)cc1Nc1nc(Nc2ccc(N3CCN(C)CC3)cc2)ncc1Cl [Compound 32, N-{2-[(5-chloro-2-{[4-(4-methylpiperazin-1-yl)phenyl]amino}pyrimidin-4-yl)amino]-4-methylphenyl}prop-2-enamide]	1 to 10	10 to 100
C=CC(=O)Nc1ccc(C)cc1Nc1nc(Nc2ccc(N3CCN(C)CC3)cc2)ncc1C(=O)Nc1c(C)cccc1Cl [Compound 35, N-(2-chloro-6-methylphenyl)-4-{[5-methyl-2-(prop-2-enamido)phenyl]amino}-2-{[4-(4-methylpiperazin-1-yl)phenyl]amino}pyrimidine-5-carboxamide]	–	10 to 100

Further lines, results first:

IC50 (YES1) [nM]	IC50 (SRC) [nM]	Compound
–	1 to 10	C=CC(=O)Nc1c(F)cccc1Nc1nc(Nc2ccc(N3CCN(C)CC3)cc2)ncc1Cl [Compound 39, N-{2-[(5-chloro-2-{[4-(4-methylpiperazin-1-yl)phenyl]amino}pyrimidin-4-yl)amino]-6-fluorophenyl}prop-2-enamide]
–	1 to 10	C=CC(=O)Nc1cc(F)ccc1Nc1nc(Nc2ccc(N3CCN(C)CC3)cc2)ncc1Cl [Compound 40, N-{2-[(5-chloro-2-{[4-(4-methylpiperazin-1-yl)phenyl]amino}pyrimidin-4-yl)amino]-5-fluorophenyl}prop-2-enamide]
< 1	1 to 10	C=CC(=O)Nc1cccc(F)c1Nc1nc(Nc2ccc(N3CCN(C)CC3)cc2)ncc1C(=O)Nc1c(C)cccc1Cl [Compound 42, N-(2-chloro-6-methylphenyl)-4-{[2-fluoro-6-(prop-2-enamido)phenyl]amino}-2-{[4-(4-methylpiperazin-1-yl)phenyl]amino}pyrimidine-5-carboxamide]
10 to 100	100 to 1000	C=CC(=O)Nc1ccc(C)cc1Nc1nc(Nc2ccc(N3CCN(C)CC3)cc2)nc2ccsc12 [Compound 46, N-{4-methyl-2-[(2-{[4-(4-methylpiperazin-1-yl)phenyl]amino}thieno[3,2-d]pyrimidin-4-yl)amino]phenyl}prop-2-enamide]
10 to 100	100 to 1000	C=CC(=O)Nc1ccc(C)cc1Nc1nc(Nc2ccc(N3CCN(C)CC3)cc2)nc2ccoc12 [Compound 47, N-{4-methyl-2-[(2-{[4-(4-methylpiperazin-1-yl)phenyl]amino}furo [3,2-d]pyrimidin-4-yl)amino]phenyl}prop-2-enamide]
–	10 to 100	C=CC(=O)Nc1cccc(CNc2nc(Nc3ccc(N4CCN(C)CC4)cc3)ncc2C(=O)Nc2c(C)cccc2Cl)c1 [Compound 49]
–	1 to 10	C=CC(=O)Nc1ccccc1CNc1nc(Nc2ccc(N3CCN(C)CC3)cc2)ncc1C(=O)Nc1c(C)cccc1Cl [Compound 50]
–	10 to 100	C=CC(=O)Nc1ccc(CNc2nc(Nc3ccc(N4CCN(C)CC4)cc3)ncc2C(=O)Nc2c(C)cccc2Cl)cc1 [Compound 51]
1 to 10	1 to 10	C=CC(=O)Nc1ccccc1Nc1nc(Nc2ccc(N3CCN(C)CC3)cc2)ncc1Cl [SM1-71, reference compound]
